Measurements: the supplement of paper PMC10307832

What was measured:
Experiment in all cases: relative viability (nuclei count vs DMSO), 5 days (fraction); higher = more cells survive
[1] = compound: C1CSC2=C(C(=O)N1)SC3=C2C=C(C=C3)O [kb NB 142-70] + CC(=O)Nc1cccc(-n2c(=O)n(C3CC3)c(=O)c3c(Nc4ccc(I)cc4F)n(C)c(=O)c(C)c32)c1 [Trametinib] (partner 0.02 µM)
Method in brief: (§1)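 Lung cancer cell lines were seeded in 1536-well plates and dosed by pin tool the next day, with either a single drug or a fixed anchor-drug dose combined with five library-drug doses (not always all listed) spaced in √10 steps. Five days later, one step fixed the cells and stained their nuclei (final 0.05% Triton X-100, 1% formaldehyde, 1 ug/ml Hoechst), and nuclei were counted on 4× images. Relative viability is the nuclei count in treated wells divided by the count in vehicle wells, and each value is the median of duplicate plates.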

[2] = compound: C1CSC2=C(C(=O)N1)SC3=C2C=C(C=C3)O [kb NB 142-70] + Cc1nc(Nc2ncc(C(=O)Nc3c(C)cccc3Cl)s2)cc(N2CCN(CCO)CC2)n1 [Dasatinib] (partner 0.075 µM)
Method in brief: as §1

[3] = compound: NCC(=O)Nc1ccc(-n2nc(C(F)(F)F)cc2-c2ccc3c(ccc4ccccc43)c2)cc1 + CC(C)C[C@H](NC(=O)[C@H](Cc1ccccc1)NC(=O)c1cnccn1)B(O)O [Bortezomib] (partner 0.002 µM)
Method in brief: as §1

[4] = compound: NCC(=O)Nc1ccc(-n2nc(C(F)(F)F)cc2-c2ccc3c(ccc4ccccc43)c2)cc1 + Cc1cc(Nc2cc(N3CCN(C)CC3)nc(Sc3ccc(NC(=O)C4CC4)cc3)n2)n[nH]1 [Tozasertib] (partner 0.1 µM)
Method in brief: as §1

Cell Line	relative viability ([1]; first compound 0.1 µM)	relative viability ([1]; first compound 1 µM)	relative viability ([1]; first compound 3.162 µM)	relative viability ([2]; first compound 0.1 µM)	relative viability ([2]; first compound 1 µM)	relative viability ([2]; first compound 3.162 µM)	relative viability ([3]; first compound 0.02 µM)	relative viability ([3]; first compound 0.06325 µM)	relative viability ([3]; first compound 0.2 µM)	relative viability ([3]; first compound 0.6325 µM)	relative viability ([3]; first compound 2 µM)	relative viability ([4]; first compound 0.02 µM)	relative viability ([4]; first compound 0.06325 µM)	relative viability ([4]; first compound 0.2 µM)	relative viability ([4]; first compound 0.6325 µM)	relative viability ([4]; first compound 2 µM)
NCI-H1755	0.814	0.742	0.836	0.456	0.425	0.419	0.892	0.935	0.958	0.946	0.978	0.626	0.596	0.6	0.591	0.555
NCI-H1915	0.332	0.331	0.37	0.323	0.339	0.248	0.889	1.01	0.964	0.932	1.03	0.378	0.465	0.426	0.418	0.407
NCI-H1975	0.407	0.339	0.248	0.395	0.421	0.364	0.37	0.414	0.44	0.345	0.426	0.7	0.841	0.839	0.726	0.747
NCI-H1993	0.479	0.741	0.485	0.626	0.478	0.531	1.1	1.28	1.08	1.15	1.21	0.54	0.582	0.572	0.529	0.561
NCI-H2009	0.284	0.29	0.263	0.321	0.284	0.155	0.911	1.05	0.825	0.963	1.08	0.821	0.715	0.772	0.692	0.653
NCI-H2023	0.52	0.559	0.566	0.51	0.536	0.5	0.993	1.13	0.724	0.932	0.904	0.326	0.394	0.441	0.387	0.321
NCI-H2085	0.515	0.542	0.325	0.252	0.198	0.274	1.09	1.05	1.03	1	1.07	0.697	0.853	0.836	0.878	0.807
NCI-H2087	0.18	0.263	0.194	0.907	1.04	0.608	0.818	0.743	0.621	0.649	0.896	0.208	0.272	0.21	0.26	0.259
NCI-H2126	0.593	0.534	0.473	0.622	0.558	0.537	1.12	1.15	1.15	1.13	1.14	0.842	0.892	0.874	0.864	0.852
NCI-H2228	0.696	0.497	0.235	0.568	0.542	0.405	0.749	0.935	1.01	1.38	0.914	0.217	0.265	0.308	0.27	0.229
NCI-H2347	0.259	0.267	0.233	0.311	0.349	0.279	0.956	1.18	1.02	1.12	0.945	0.586	0.71	0.482	0.618	0.73
NCI-H2405	0.604	0.596	0.643	0.205	0.208	0.224	0.924	1.04	0.999	0.961	0.987	0.745	0.853	0.779	0.733	0.868
NCI-H3122	0.229	0.225	0.274	0.803	0.794	0.84	1.02	1.02	0.984	1	1.05	0.412	0.431	0.391	0.366	0.236
PC-3 [JPC-3]	0.685	0.726	0.643	0.94	1.05	1.02	0.763	0.853	0.8	0.816	0.929	0.9	0.889	0.976	0.971	0.828
PC-14	0.808	0.769	0.799	0.299	0.239	0.224	0.966	0.822	1.06	0.895	0.858	0.634	0.606	0.543	0.517	0.651
RERF-LC-KJ	0.914	0.928	0.805	0.834	0.872	0.752	1.11	1.19	1.15	1.26	1.14	0.449	0.548	0.555	0.552	0.403
SK-LU-1	0.486	0.548	0.27	0.176	0.163	0.119	1.07	1.22	1.23	1.07	1.31	0.324	0.335	0.386	0.346	0.339
SW 1573	0.541	0.475	0.418	0.491	0.458	0.188	1.16	1.28	1.05	0.894	1.02	0.244	0.15	0.272	0.228	0.182
